Source: ChEMBL document CHEMBL4680214, “Fluorinated derivatives of 2-phenyl-3-hydroxy-4(1H)-quinolinone as tubulin polymerization inhibitors” (Eur J Med Chem, 2020)
Activity calls are given as the source filed them. The calls are words filed in the database; no cut-off is given here.

What was measured:
CCRF-CEM [1] = test: Cell cycle arrest in human CCRF-CEM cells assessed as accumulation at sub-G1 phase at IC50 measured after 24 hrs by propidium iodide staining based flow cytometry (reference value: 2%); assay type: functional
CCRF-CEM [2] = test: Cell cycle arrest in human CCRF-CEM cells assessed as increase in cyclin B1 expression at 2 times IC50 measured after 6 to 12 hrs by Western blot analysis; assay type: functional, cell-based; conditions: time 6-12 hrs
CCRF-CEM [3] = test: Cell cycle arrest in human CCRF-CEM cells assessed as BrdU incorporation at 5 times IC50 measured after 24 hrs by propidium iodide/immunostaining based flow cytometry (reference value: 60.0%); assay type: functional
Tubulin (Homo sapiens) = Tubulin (Homo sapiens) (UniProt P68371+Q9H4B7+P0DPH7+P68366+Q13509+Q71U36+P04350+Q3ZCM7+P07437+P68363+Q9BQE3+Q6PEY2+Q13885+Q9BVA1+Q9BUF5); test: Induction of microtubule depolymerization in human HCT-116 cells assessed as appearance of abnormal mitotic spindle morphology at 5 times IC50 after 24 hrs by DAPI staining based immunofluorescence analysis; assay type: cell-based
CCRF-CEM [4] = test: Cell cycle arrest in human CCRF-CEM cells assessed as BrdU incorporation at IC50 measured after 24 hrs by propidium iodide/immunostaining based flow cytometry (reference value: 60.0%); assay type: functional
CCRF-CEM [5] = test: Cell cycle arrest in human CCRF-CEM cells assessed as decrease in Bcl2 expression at 2 times IC50 measured after 24 hrs by Western blot analysis; assay type: functional, cell-based
CCRF-CEM [6] = test: Cell cycle arrest in human CCRF-CEM cells assessed as polyploid cell population at 2 times IC50 measured after 6 hrs by propidium iodide staining based flow cytometry (reference value: 11.3%); assay type: functional
HCT-116 [7] = test: Cell cycle arrest in human HCT-116 cells assessed as accumulation at G2/M phase at IC50 measured after 24 hrs by propidium iodide staining based flow cytometry (reference value: 27.0%); assay type: functional
HCT-116 [8] = test: Cell cycle arrest in human HCT-116 cells assessed as BrdU incorporation at 5 times IC50 measured after 24 hrs by propidium iodide/immunostaining based flow cytometry (reference value: 48.6%); assay type: functional
HCT-116 [9] = test: Cell cycle arrest in human HCT-116 cells assessed as BrU incorporation at IC50 measured after 24 hrs by propidium iodide/immunostaining based flow cytometry (reference value: 54.0%); assay type: functional

For O=c1c(O)c(-c2ccccc2)[nH]c2cc(F)c(Sc3ccccc3)cc12, the Activity (CCRF-CEM [1]) was 5.8%, the Activity (CCRF-CEM [2]) was “Active” and the Activity (CCRF-CEM [3]) was 18.7%. For the same compound, the Activity (Tubulin (Homo sapiens)) was “Active”, the Activity (CCRF-CEM [4]) was 74.2% and the Activity (CCRF-CEM [5]) was “inactive”. The Activity (CCRF-CEM [6]) was 10.5%, the Activity (HCT-116 [7]) was 33.2% and the Activity (HCT-116 [8]) was 41.6%. It also gave an Activity (HCT-116 [9]) of 65.4%.
